Data: patent US20250262209A1, “TREATMENT OF GASTROINTESTINAL DISEASES” (Aclipse Two, Inc., priority 2022, published 2025)

Legend:
[1] = system: TNF-α, IL-10, CCL2, and IL-1β gene expression in colon; experiment: QT-PCR gene expression in colon of the DSS-induced IBD model; format: in vivo, mice
Procedure: Animals were euthanized by CO2 at the end of study. Colon length and colon weight (cecum is not included) were recorded, and macroscopic changes were scored based on Table 2. The colon was cleaned using saline, and all feces were removed before weight measurement. The middle part of colon was collected in cassette and fixed in 10% neutral buffered formalin (NBF) for H&E and PAS staining. For left colon, mucosal from colon surface was removed and then snap frozen in liquid nitrogen and store at −80° C. for QT-PCR analysis of TNF-α, IL-10, CCL2, and IL-1β. QT-PCR primers were purchased from Sangon Biotech Co., Ltd.
Treatment of Tissue before RNA Extraction are as follows. • (a) Remove mucosal from colon surface. Cut colon tissue into small pieces on ice. • (b) Weight out the tissue no more than 30 mg and transfer the tissue into a lysing matrix D tube. Totally 700 µL Trizol was added in the tissue and lysing matrix D immediately. • (c) Put the lysing matrix D tubes which contain tissue, Lysing matrix, and 700 μL Trizol into the FastPrep™-24 Sample Preparation System. • (d) Set at speed 6 and grind for 2 min • (e) 140 μL chloroform was added into the tubes, shake the tubes vigorously by vortex for 15 seconds. Incubate at room temperature for 2 min. • (f) 12000 rpm centrifuge for 10 min at 4° C., • (g) Pipet the supernatant to 96 well 2.2 mL deep well plate
RNA Sample Preparation procedure is as follows. • (a) 600 μL Binding Buffer was added into column 1 and 7 • (b) 600 μL DNase Stop Buffer was added into column 2 I 8 • (c) 600 μL Wash Buffer was added into column 3, 4 and 9, 10 • (d) 100 μL Elution Buffer was added into column 5Id 11 • (e) 190 μL DEPC water and 10 μL MagaBio® Reagent was added into column 6 and 12 • (f) Transfer 300 μL of the colorless, upper phase containing the RNA to column 1 and 7 • (g) Put the test plate in nucleic acid purifier • (h) Set the instrument as below in Table 3.
The elution was transferred into a clean nuclease-free centrifuge tube and the RNA sample was store at −80° C.
To use the Takara Prime Script™ Reverse Transcription System, Mix and briefly centrifuge each component before use. Combine the following component volume as in Table 4.
• (a) Store on ice until reverse transcription mix is added. Centrifuge 10 seconds in a micro-centrifuge. Heat in a 42° C. heat block for 2 minutes, 4° C. immediately chill in ice water for at least 5 minutes. • (b) Prepare the reverse transcription reaction mix, 10 μL for each cDNA reaction. Combine on ice, in the order listed. Component volume of step b) (Table 5).
• (c) Combine 20 μL of reverse transcription mix, Centrifuge 10 seconds in a microcentrifuge. • (d) Anneal in a heat block at 37° C. for 15 min, 85° C. for 5 sec, 4° C. save on S100™ Thermal Cycler. • (e) Aliquot the cDNA sample and store at −20° C.
• (a) Make qPCR reaction mixture in one tube based on assay number and replicas. • (b) Prepare primers and master mix mixture according to manufacturer's instructions. And aliquot 9 μL of mixture into each well of the 384 qPCR plate. • (c) Transfer 1 μL of cDNA into each well of a 384 qPCR plate which already contain 9 μL of mixture. Briefly centrifuge the plate. • (d) Seal the plate • (e) Mix thoroughly, spin briefly • (f) Run the PCR Reaction • (g) Place the reaction plate in the instrument. • (h) Set the Applied Biosystems ViiA™ 7 cycling conditions as in Table 6.
Data were expressed as mean±SD. The 2-ΔΔCT method was used to analyze the mRNA expression level. The results were normalized for RNA input using glyceraldehydes-3-phosphate dehydrogenase (GAPDH or other internal controls). Statistical analysis was performed using, one-way ANOVA followed if significant by post-hoc Dunnett test. […] The difference was considered significant when p<0.05

[2] = system: monocytes differentiated to M1 macrophage; experiment: M1 macrophage differentiation assay; format: cell-based, human; details: TNF-α, IL-1b, IL-6, IL-12, IL-23 in supernatant on day 7 (MSD); concentrations of Table 9
Excerpt: The purpose of this study was to evaluate the effects of lobeglitazone and other thiazolidinediones on M1 macrophage differentiation. The test articles and vehicles used in this study were lobeglitazone sulfate, pioglitazone HCl, and rosiglitazone.
M1 macrophage differentiation assay timeline was as follows in Table 8.
Drug concentrations tested in the M1 differentiation assay are as in Table 9.
• (1) Revive frozen monocytes. • (2) Count cells and adjust the cell density to 0.5×10^6 cells/ml with fresh complete differentiation medium (RPMI1640+10% FBS+1% PS plus GM-CSF or M-CSF at 50 ng/ml). • (3) Seed isolated monocyte 100 μL per well on 96-well plate. • (4) Add test articles as the plate map using D300e (final concentration in μM). • (5) Differentiate the monocyte to macrophage in the presence of GM-CSF to M1, or M-CSF to M2 for 5 days. • (6) On day 5, add cytokines at 2× final concentration. • (6a) Prepare medium containing GM-CSF for M1 and M-CSF for M2. • (6b) Add corresponding activator to reach 2× final working concentration: (i) IFNγ stock 0.2 mg/ml: add 2.5 μL stock into 5 ml complete differentiation medium for 100 ng/ml; (ii) LPS stock 1.0 mg/ml: dilute to 20 μg/ml by mixing 2 μL stock into 100 μl medium; then add 10 μl 20 μg/ml LPS to 5 ml complete differentiation medium for 40 ng/ml; (iii) IL-4 stock 0.1 mg/ml: dilute 2 μL stock into 5 ml complete differentiation medium for 40 ng/ml. • (6c) Add 100 μL cytokine containing differentiating medium to each well, and total volume of each well is 200 μL. • (6d) Add test compound again using D300e. Make sure to set the final volume as 200 μL. • (7) Incubate cytokine and test compound for 48 hours. • (8) On day 7, spin down the plates at 300×g for 5 min and collect the supernatant for cytokine quantification using MSD. • (9) M1 associated macrophage cytokines TNF-α, IL-1b, IL-6, IL-12, and IL-23 were quantified.

[3] = 0.36 mg/kg PO QD 10 days, vs model
[4] = 1.20 mg/kg PO QD 10 days, vs model
[5] = 3.61 mg/kg PO QD 10 days, vs model

**Q.** Which results are given for `COc1ccc(Oc2cc(N(C)CCOc3ccc(CC4SC(=O)NC4=O)cc3)ncn2)cc1` (stereo not drawn) [lobeglitazone, 5-(4-(2-((6-(4-Methoxyphenoxy)pyrimidin-4-yl)(methyl)amino)ethoxy)benzyl)thiazolidine-2,4-dione]?
**A.** CCL2 gene expression levels in colon [1, 3]: led to decreases; IL-1B gene expression levels in colon [1, 3]: significantly decreased; TNF-α gene expression levels in colon [1, 3]: significantly decreased; CCL2 gene expression levels in colon [1, 4]: led to decreases; IL-1B gene expression levels in colon [1, 4]: significantly decreased; TNF-α gene expression levels in colon [1, 4]: significantly decreased; CCL2 gene expression levels in colon [1, 5]: significantly decreased; IL-1β gene expression levels in colon [1, 5]: did not change; TNF-α gene expression levels in colon [1, 5]: didn't show obvious changes; IL-10 gene expression levels in colon ([1]; lobeglitazone groups (0.36, 1.20, 3.61 mg/kg PO QD 10 days)): did not change significantly; GI inflammation, as evidenced by the gene expression data ([1]; mouse DSS model, 0.36 and 1.20, and 3.61 mg/kg): significantly decreased; M1 macrophage cytokines expression [2]: did not show the promotion
